The term IC50 denotes the point on the concentration scale where inhibition reaches its midpoint. High values mean weaker potency, low ones greater potency. As a reminder, the melting point is the temperature, or range, at which the solid turns liquid.

This note sets out measurements from US7368578B2, “Five-membered heterocyclic compounds” (Takeda Pharmaceutical Company Limited, priority 2002, dated 2008).

The structures appear in SMILES notation.

One data set addresses T1, human PPARγ1 (Homo sapiens, UniProt P37231).
T1 construct: made in house; host or cells: COS-1 cells transiently transfected with pMCMVneo-hPPARγ; crude supernatant of the lysate, not purified
T1 sequence (P37231 1-477 isoform P37231-2): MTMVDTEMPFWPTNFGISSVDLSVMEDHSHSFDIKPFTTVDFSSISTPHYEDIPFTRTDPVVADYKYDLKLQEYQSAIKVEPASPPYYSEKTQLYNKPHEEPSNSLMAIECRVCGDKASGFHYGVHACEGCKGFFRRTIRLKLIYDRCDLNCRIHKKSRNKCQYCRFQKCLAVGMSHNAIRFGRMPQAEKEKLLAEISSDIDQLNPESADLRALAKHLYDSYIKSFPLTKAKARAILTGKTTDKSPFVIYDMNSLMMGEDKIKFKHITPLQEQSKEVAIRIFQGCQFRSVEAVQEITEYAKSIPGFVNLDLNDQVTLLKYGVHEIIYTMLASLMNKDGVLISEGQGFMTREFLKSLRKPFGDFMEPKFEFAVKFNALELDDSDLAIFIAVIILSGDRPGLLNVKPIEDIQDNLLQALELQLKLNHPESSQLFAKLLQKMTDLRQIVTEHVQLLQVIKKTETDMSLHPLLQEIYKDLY
The data set can be described thus: Measurement of human PPARγ1 binding activity ([3H]-compound A displacement). The note with it: cell extract with 1.5 μg/ml full length hPPARγ1, 20 nM [3H]-compound A, 4° C., 16 hrs. As for the experimental part:
A cell extract containing 1.5 μg/ml of full length hPPARγ1 prepared in Reference Example 7a, 20 nM [^3H]-compound A (16 Ci/mmol)(Amersham Pharmacia Biotech) and a test compound were reacted in TEGM buffer at 4° C. for 16 hrs. To the reaction mixture was added activated carbon (Sigma) coated with 140 μl of dextran (Amersham Pharmacia Biotech) and gelatin (Sigma), and the mixture was left standing at 4° C. for 10 min and centrifuged at 910×g for 10 min. After centrifugation, the radioactivity of 30 μl of supernatant was measured with Topcount (Packard). In addition, a test similar to the above was conducted for the non-use of the aforementioned test compound and for the use of 100 μM of compound A instead of the aforementioned test compound, and the radioactivity was determined.
The human PPARγ1 binding activity of the test compound was evaluated using percentages wherein the measured value of the radioactivity when 20 nM [^3H]-compound A alone was added was 100%, and the measured value of the radioactivity when 20 nM [^3H]-compound A and 100 μM of compound A were simultaneously added was 0%. Moreover, the IC50 value of the test compound was calculated based on the analysis of the compound concentration and the percentage using PRISM3.0 (Graph Pad, Inc.).
COS-1 cells were seeded in a 150 cm^2 tissue culture flask (Corning Inc.) at 5×10^6 cells, and cultured under 37° C. 5% CO2 conditions for 24 hrs. Transfection was performed using lipofectamine (GIBCO BRL). To be specific, 125 μl of lipofectamine, 100 μl of PLUS Reagent and 15 μg of hPPARγ expression plasmid (plasmid pMCMVneo-hPPARγ obtained in Reference Example 6a) were mixed with opti-MEM (GIBCO BRL) to give a transfection mixture. The transfection mixture (25 ml) was added to COS-1 cells and the cells were cultured under 37° C. 5% CO2 conditions for 3 hrs. Then 25 ml of DMEM medium (Nikken Biomedical Laboratory) containing 10% FCS treated with activated carbon (Sigma) was added to the cells and the cells were cultured under 37° C. 5% CO2 conditions. After 24 hrs., the medium was substituted with 50 ml of DMEM medium (Nikken Biomedical Laboratory) containing 5% FCS treated with activated carbon, and the cells were cultured under 37° C., 5% CO2 conditions. After 48 hrs, the transfected cells were recovered and washed with TEG buffer (10 mM Tris-HCl (pH 7.2), 50 mM EDTA, 10% glycerol). The cells were suspended in 1 ml TEGM buffer (10 mM Tris-HCl (pH 7.2), 1 mM EDTA, 10% glycerol, 7 μl/100 ml β-mercaptoethanol, 10 mM Na molybdate, 1 mM dithiothreitol, 2 tablets/100 ml Protease inhibitor Cocktail tablets (Boehringer Mannheim)) and, for cell lysis, frozen with liquid nitrogen and thawed on ice. To remove the debris of the cells, the extract was centrifuged at 228,000×g, 4° C. for 20 min. and the supernatant was preserved at −80° C. until use.

Compound `CCC(=O)/C=C/c1cn(-c2ccccc2)nc1OCc1ccc(OCc2nc(-c3ccco3)oc2C)c(OC)c1` [Example 156, (1E)-1-{3-[(4-{[2-(2-furyl)-5-methyl-1,3-oxazol-4-yl]methoxy}-3-methoxybenzyl)oxy]-1-phenyl-1H-pyrazol-4-yl}-1-penten-3-one] gave a melting point of 167 to 168 °C. This compound also yielded an IC50 at human PPARγ1 of 7300 nM.
For the compound `CCOP(=O)(/C=C/c1cn(-c2ccccc2)nc1OCc1ccc(OCc2csc(N3CCOCC3)n2)c(OC)c1)OCC` [Example 191, diethyl (E)-2-{3-[(3-methoxy-4-{[2-(morpholin-4-yl)-1,3-thiazol-4-yl]methoxy}benzyl)oxy]-1-phenyl-1H-pyrazol-4-yl}ethenylphosphonate], the melting point lay in the range of 93 to 94 °C. At human PPARγ1, this compound had a half-maximal inhibitory concentration (IC50) of 810 nM.
For `CCOP(=O)(/C=C/c1cn(-c2ccccc2)nc1OCc1ccc(OCc2nc(-c3cccc(C(=O)O)c3)oc2C)c(OC)c1)OCC` [Example 203, 3-[4-({4-[({4-[(E)-2-(diethoxyphosphoryl)ethenyl]-1-phenyl-1H-pyrazol-3-yl}oxy)methyl]-2-methoxyphenoxy}methyl)-5-methyl-1,3-oxazol-2-yl]benzoic acid], in that order: 148 to 149 °C and 4.8 nM.
On to `CCOP(=O)(/C=C/c1cn(-c2ccccc2)nc1OCc1ccc(OCc2nc(-c3cccc(C(=O)OC)c3)oc2C)c(OC)c1)OCC` [Example 211, methyl 3-[4-({4-[({4-[(E)-2-(diethoxyphosphoryl)ethenyl]-1-phenyl-1H-pyrazol-3-yl}oxy)methyl]-2-methoxyphenoxy}methyl)-5-methyl-1,3-oxazol-2-yl]benzoate], for which the melting point fell in the range of 141 to 142 °C. The half-maximal inhibitory concentration (IC50) at human PPARγ1 worked out at 27 nM.
For `CCc1nc(/C=C/c2cn(-c3ccccc3)nc2OCc2ccc(OCc3nc(-c4cccc(C(=O)O)c4)oc3C)c(OC)c2)cs1` [Example 224, 3-[4-({4-[({4-[(E)-2-(2-ethyl-1,3-thiazol-4-yl)ethenyl]-1-phenyl-1H-pyrazol-3-yl}oxy)methyl]-2-methoxyphenoxy}methyl)-5-methyl-1,3-oxazol-2-yl]benzoic acid], in that order: 190 to 191 °C and 3.6 nM.
On to `CCOP(=O)(/C=C/c1cn(-c2ccccc2)nc1OCc1ccc(OCc2nc(-c3cccc(C(N)=O)c3)oc2C)c(OC)c1)OCC` [Example 239, diethyl (E)-2-(3-{[4-({2-[3-(carbamoyl)phenyl]-5-methyl-1,3-oxazol-4-yl}methoxy)-3-methoxybenzyl]oxy}-1-phenyl-1H-pyrazol-4-yl)ethenylphosphonate], for which the melting point lay in the range of 127 to 128 °C. Further, the IC50 on human PPARγ1 worked out at 61 nM.
The like results for `CCOP(=O)(/C=C/c1cn(-c2ccccc2)nc1OCc1ccc(OCc2nc(-c3ccc(OC)c(C(=O)O)c3)oc2C)c(OC)c1)OCC` [Example 252, 5-{4-({4-[({4-[(E)-2-(diethoxyphosphoryl)ethenyl]-1-phenyl-1H-pyrazol-3-yl}oxy)methyl]-2-methoxyphenoxy}methyl)-5-methyl-1,3-oxazol-2-yl}-2-methoxybenzoic acid] were, in that order, 171 to 172 °C and 23 nM.
For `COc1cc(COc2nn(-c3ccccc3)cc2/C=C/C#N)ccc1OCc1nc(-c2ccccc2)oc1C` [Example 282, (E)-3-(3-{[3-methoxy-4-(5-methyl-2-phenyl-1,3-oxazol-4-ylmethoxy)benzyl]oxy}-1-phenyl-1H-pyrazol-4-yl)-2-propenonitrile], in that order: 184 to 185 °C and 120 nM.
For `CCOC(=O)/C=C/c1cn(-c2ccccc2)nc1OCc1ccc(OCc2nc(-c3ccccc3)oc2C)c(OC)c1` [Example 284, ethyl (E)-3-(3-{[3-methoxy-4-(5-methyl-2-phenyl-1,3-oxazol-4-ylmethoxy)benzyl]oxy}-1-phenyl-1H-pyrazol-4-yl)-2-propenoate], in that order: 194 to 195 °C and 75 nM.
As to `CCc1nc(/C=C/c2cn(-c3ccccc3)nc2OCc2ccc(OCc3nc(-c4cccc(C(=O)O)c4)oc3C)c(OC)c2)co1` [Example 307], the melting point lay within 169 to 171 °C. The same compound had an IC50 on human PPARγ1 of 7.4 nM.
The like results for `CCOP(=O)(/C=C/c1cn(-c2ccccc2)nc1OCc1ccc(OCc2nc(/C=C/C(=O)O)oc2C)c(OC)c1)OCC` [Example 315, (2E)-3-[4-({4-[({4-[(E)-2-(diethoxyphosphoryl)ethenyl]-1-phenyl-1H-pyrazol-3-yl}oxy)methyl]-2-methoxyphenoxy}methyl)-5-methyl-1,3-oxazol-2-yl]-2-propenoic acid] were, in that order, 89 to 90 °C and 500 nM.
For `CCn1cnc(/C=C/c2cn(-c3ccccc3)nc2OCc2ccc(OCc3nc(-c4ccc(CC(=O)O)cc4)oc3C)c(OC)c2)c1` [Example 344, (4-{4-[(4-[({4-[(E)-2-(1-ethyl-1H-imidazol-4-yl)ethenyl]-1-phenyl-1H-pyrazol-3-yl}oxy)methyl]-2-methoxyphenoxy)methyl]-5-methyl-1,3-oxazol-2-yl}phenyl)acetic acid], in that order: 194 to 196 °C and 46 nM.
